Data set [1] relates to RSV strain Long. In words: Plaque reduction assay in HEp-2 cells. It counts as cell-based, Human respiratory syncytial virus. The conditions noted are these: 25 μM test compound, MOI 0.1, HEp-2. As for the experimental part:
These compounds were evaluated for their ability to reduce the amount of infectious virus produced in cell culture. HEp-2 cells were infected with hRSV in the presence of 25 μM test compound. Media supernatants were removed and 10-fold serial-diluted onto a confluent field of uninfected, untreated HEp-2 cells, bound, washed, and overlaid with agarose. After six days, plaques were fixed, stained, and counted to determine the amount of infectious virus in the original, drugged supernatants (Figure 8).
Figure 8 Plaque reduction assay in HEp-2 cells. RSV strain Long was assayed for its sensitivity to five compounds. Supernatants were harvested from test (25 μM) or control compound (35 μM) treated RSV-infected HEp-2 cells at a multiplicity of infection (MOI) of 0.1. Serial dilutions of the supernatants were added to monolayers of HEp-2 cells in 24-well plates. Cells were fixed after 6 days and stained with neutral red. Plaque reduction assays were performed in triplicate per compound. CC, uninfected cell control; VC, untreated virus-infected control. The concentration of DMSO in each assay well, including all control wells was 0.5%.
Compounds or carrier control (DMSO) were diluted in Complete DMEM/F12 and 2 mL per well was dispensed to 6-well assay plates (final plate well concentration was 25 μM, ribavirin; 35 μM and final DMSO concentration 0.5%). […]

Data set [2] relates to hRSV (strain Long). In words: 384-well CPE inhibition assay, hRSV-infected HEp-2 cells, Cell Titer Glo endpoint. It counts as cell-based. The conditions noted are these: human respiratory syncytial virus, 144 h; HEp-2, virus MOI = 0.5, 8 point dose response 50-0.39 uM, 6 days, triplicate; read-out: EC50 (efficacy). As to the method: (§1) Figure 3 Dose response of ribavirin. HEp-2 cells were plated in 384-well black tissue culture plates at 2,000 cells per well. Ribavirin or carrier control (DMSO) were diluted to 6x in Complete DMEM/F12 and serially diluted 1:2 resulting in an 8 point dose response dilution series. (final plate well concentration ranging from 50 uM to 0.39 uM and a final DMSO concentration of 0.5%). For dose response screening, cells were infected with a 1:500 dilution of virus (viral MOI = 0.5). The assay plates were incubated for six days at 37°C, 5% CO2 and 90% relative humidity and the inhibitory effects of the drug were assessed using Cell Titer Glo. […]
(§2) Following the six day incubation period, the assay plates were equilibrated to room temperature for 30 min. […] At the end of the incubation, luminescence was measured using a multi-label reader (Envision, PerkinElmer, Wellesley, MA) with an integration time of 0.1 s.
(§3) HTS data were analyzed using ActivityBase software (IDBS, Inc., Guildford, UK). Antiviral activity is described as percent CPE inhibition = 100*((luminescence compound well minus median luminescence virus control)/ (median luminescence cell control minus median luminescence virus control)). Percent viability = 100 * luminescence compound well/median luminescence cell control. […] Two dose-response curves were calculated for each substance. […] The selective index (SI) was calculated as SI = CC50/EC50. […]
For orientation: In ATP-based viability assays light output follows the ATP content of the culture.

In data set [3] the test system is hRSV (strain Long). Set-up: method as in PMID 14638398. The conditions noted are these: previously reported value; cited from earlier work.
Data set [4] can be described thus: Cytotoxicity dose response in HEp-2 cells (Cell Titer Glo). It counts as cell-based. The conditions noted are these: human, HEp-2, 8 point dose response, duplicate. As to the method:
as §1, §2, §3

Read-outs that look alike come from different tables or passages of the source.

As to `O=C(O)C1CC=CCC1C(=O)Nc1ccc(S(=O)(=O)N2CCCc3ccccc32)cc1` (centres unmarked) [SID 93616804], the “reduction in virus titer (pfu/mL) from control” value in data set [1] is listed as 6.5 log. As for `COc1ccccc1CNC(=O)C1CCN(S(=O)(=O)c2cccc3nonc23)CC1` [compound 93616803], the “reduction in virus titer (pfu/mL) from control” value in data set [1] was determined as 4 log. Consider `NC(=O)c1ncn([C@@H]2O[C@H](CO)[C@@H](O)[C@H]2O)n1` [ribavirin], for which the EC50 in data set [2] was approximately 40 µM; in data set [3], 41 µM. The compound further gave a CC50 at 6 days in data set [4] of approximately 75 µM.

A word on the EC50: it is the concentration giving half of the maximal effect. A word on the CC50: it is the concentration giving 50% cytotoxicity. Low values mean harm at low concentration, high ones better tolerance by the cells.
